Measured values from ChEMBL document CHEMBL1155558, “New cyclic peptide and bisindolyl benzenoid metabolites from the sclerotia of Aspergillus sclerotiorum” (2000).

Test system: Spodoptera frugiperda
Experiment: Activity against Spodoptera frugiperda assessed as reduction in feeding rate at 50 ug/cotton leaf disk
Format: functional
Set-up: scale not given: the % may be the effect or the level left

CN1C(=O)[C@H](CCC(N)=O)NC(=O)CNC(=O)[C@H](Cc2ccccc2)N(C)C(=O)[C@H](Cc2ccccc2)NC(=O)CNC(=O)[C@@H]1Cc1ccccc1 [SCLERAMIDE]
Activity: 27%
